Data on 17 compounds can be found in patent US6448269B1 (Eli Lilly and Company, priority 1993, dated 2002).

Where a name gives a salt, the structure may show the parent alone. Where only a bound is given, the exact number is not on record here.

In assay [1] the target is T1, GPIIb-IIIa (Homo sapiens, UniProt P05106+P08514).
T1 construct: Purified platelet GPIIb-IIIa receptor was prepared as described by Fitzgerald; from tissue; host or cells: platelets
T1 sequence (P08514 32-887 limits assumed): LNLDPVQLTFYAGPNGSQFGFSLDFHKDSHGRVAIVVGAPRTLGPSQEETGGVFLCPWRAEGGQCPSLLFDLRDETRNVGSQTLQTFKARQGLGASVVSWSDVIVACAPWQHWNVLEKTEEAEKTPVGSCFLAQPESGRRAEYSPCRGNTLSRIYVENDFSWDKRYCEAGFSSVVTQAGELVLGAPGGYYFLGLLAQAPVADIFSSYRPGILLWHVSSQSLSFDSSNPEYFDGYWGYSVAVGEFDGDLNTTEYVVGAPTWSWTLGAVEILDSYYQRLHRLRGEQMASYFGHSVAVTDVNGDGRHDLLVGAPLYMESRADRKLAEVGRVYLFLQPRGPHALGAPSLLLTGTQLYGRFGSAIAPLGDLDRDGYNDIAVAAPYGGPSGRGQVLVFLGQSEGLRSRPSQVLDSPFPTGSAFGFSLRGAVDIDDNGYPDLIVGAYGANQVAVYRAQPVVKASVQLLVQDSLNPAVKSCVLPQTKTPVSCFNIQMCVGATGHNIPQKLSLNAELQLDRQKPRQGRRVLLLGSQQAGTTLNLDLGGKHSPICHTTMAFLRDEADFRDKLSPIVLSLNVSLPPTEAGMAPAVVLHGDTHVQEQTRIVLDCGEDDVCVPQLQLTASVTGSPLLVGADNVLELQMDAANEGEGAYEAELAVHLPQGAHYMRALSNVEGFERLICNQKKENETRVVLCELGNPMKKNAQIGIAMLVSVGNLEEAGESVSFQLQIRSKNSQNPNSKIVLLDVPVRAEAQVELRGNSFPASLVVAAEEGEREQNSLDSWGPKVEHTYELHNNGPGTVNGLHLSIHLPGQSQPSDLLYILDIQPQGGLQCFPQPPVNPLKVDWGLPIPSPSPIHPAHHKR
T1 sequence (P05106 27-788): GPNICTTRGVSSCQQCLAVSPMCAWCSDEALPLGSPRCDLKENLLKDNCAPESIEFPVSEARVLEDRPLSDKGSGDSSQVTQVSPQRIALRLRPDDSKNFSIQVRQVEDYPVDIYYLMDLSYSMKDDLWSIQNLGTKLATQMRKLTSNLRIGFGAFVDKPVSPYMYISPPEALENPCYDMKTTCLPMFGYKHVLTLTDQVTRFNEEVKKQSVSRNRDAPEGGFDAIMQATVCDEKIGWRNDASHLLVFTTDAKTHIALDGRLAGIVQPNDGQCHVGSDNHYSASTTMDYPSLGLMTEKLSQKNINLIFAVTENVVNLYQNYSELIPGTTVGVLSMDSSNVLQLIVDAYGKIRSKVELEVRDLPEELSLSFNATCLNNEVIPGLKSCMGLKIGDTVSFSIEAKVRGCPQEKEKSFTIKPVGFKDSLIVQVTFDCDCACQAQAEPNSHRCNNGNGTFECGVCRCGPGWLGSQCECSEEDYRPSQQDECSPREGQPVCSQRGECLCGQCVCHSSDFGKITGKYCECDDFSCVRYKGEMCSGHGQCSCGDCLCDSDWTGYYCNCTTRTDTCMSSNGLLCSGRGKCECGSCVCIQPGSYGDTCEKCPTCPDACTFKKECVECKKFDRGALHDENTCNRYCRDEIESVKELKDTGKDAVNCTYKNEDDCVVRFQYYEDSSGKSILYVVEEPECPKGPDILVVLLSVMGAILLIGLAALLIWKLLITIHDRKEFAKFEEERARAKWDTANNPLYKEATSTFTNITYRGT
The assay is described as follows: ELISA IIb-IIIa assay (fibrinogen binding to immobilized GPIIb-IIIa). As to conditions: purified platelet GPIIb-IIIa receptor coated on ELISA plates; biotin-labeled fibrinogen 10 nM, 3 hours at 25° C. The method, then: In the following assay, GPIIb-IIIa is prepared in purified form, by a method such as described by Fitzgerald, L. A., et al., Anal Biochem (1985) 151:169-177, (the disclosure of which is incorporated herein by reference). GPIIb-IIIa is coated onto microtiter plates. The coated support is then contacted with fibrinogen and with the test material (e.g., compounds of Formula I) and incubated for a sufficient time to permit maximal binding of fibrinogen to the immobilized GPIIb-IIIa. Fibrinogen is typically provided at a concentration of about 5-50 nM and the test material can, if desired, be added at a series of dilution. Typical incubations are 2 to 4 hours at 25° C., the time and temperature being interdependent.
After incubation, the solution containing the fibrinogen and test material is removed and the level of binding of fibrinogen measured by quantitating bound fibrinogen to GPIIb-IIIa. Any suitable means of detection may be used, but it is convenient to employ labeled fibrinogen, for example using biotinylated labels. Such methods are well known in the art.
Purified platelet GPIIb-IIIa receptor was prepared as described by Fitzgerald, L. A., et al., Anal Biochem (1985) 151:169-177 (1985). Vitronectin receptor was prepared as described by Smith, J. W., J. Biol Chem (1988) 263:18726-18731. After purification, the receptors were stored in 0.1% Triton X-100 at 0.1-1.0 mg/ml.
The receptors were coated to the wells of 96-well flat-bottom ELISA plates (Linbro EIA-Plus microtiter plate, Flow Laboratories) after diluting 1:200 with a solution of 20 mM Tris-HCl, 150 mM NaCl, 1 mM CaCl2, pH 7.4, to reduce the Triton X-100 concentration to below its critical micellar concentration and adding an aliquot of 100 ul to each well. The wells were all allowed to incubate overnight at 4° C., and then aspirated to dryness. Additional sites were blocked by the addition of bovine serum albumin (BSA) at 35 mg/ml in the above buffer for 2 hours at 30° C. to prevent nonspecific binding. The wells were then washed once with binding buffer ([…] Tris-HCl, 100 mM NaCl 2 mM CaCl2, 1 mg/ml BSA).
The corresponding ligands (fibrinogen, von Willebrand Factor, or vitronectin) were conjugated to biotin using commercially available reagents and standard protocols. The labeled ligands were added to the receptor-coated wells at final concentration of 10 nM (100 ul/well) and incubated for 3 hours at 25° C. in the presence or absence of the test samples. After incubation, the wells are aspirated to dryness and bound ligand is quantitated.
The bound protein is detected by the addition of antibiotin antibody conjugated to alkaline phosphatase followed by addition of substrate (p-nitrophenyl phosphate), and determination of the optical density of each well at […]. Decreased color development is observed in wells incubated with test samples which inhibit binding of ligand to receptor.
A general note: ELISA stands for enzyme-linked immunosorbent assay.

Assay [2] concerns human platelet-rich plasma. The assay is described as follows: Platelet aggregation assay (Aggregation-Human PRP/ADP). The note with it: 1 min; human platelet-rich plasma incubated with compound 1 minute at 37° C.; ADP-induced aggregation; read-out: Agg: Human PRP/ADP IC50uM. Format: cell-based. The method, then: Platelet-rich plasma was prepared from healthy human volunteers for use in determining inhibition of platelet aggregation by the compounds.
Platelet-rich plasma was prepared at room temperature by centrifugation of the citrated whole blood at 100×g for 12 minutes. The platelet rich plasma contained approximately 200-400,000 platelets/μl.
Platelet-poor plasma was prepared by centrifugation of citrated whole blood at 12,000×g for 2 minutes.
Platelet aggregation was assayed in a 4-channel platelet aggregation profiler (PAP-4, Biodata, Hatboro, Pa.) according to the manufacturers directions. Inhibition of platelet aggregation was studied by adding varying amounts of […] to stirred human platelet-rich plasma. Specifically, the human platelet-rich plasma was incubated with the compound being tested for 1 minute at 37° C. prior to the addition of a variety of aggregating agents most often ADP 5 μM, but also 1 μg/ml collagen, 1 μM U46619 and 0.3 μM platelet activating factor.

As for `N=C(N)c1ccc(C(=O)Nc2ccc3c(c2)CCC(CC(=O)O)C3)cc1` (stereo not shown) [Example 28], the figures for the IC50 in assay [1] and in assay [2] were 5 nM and 0.19 µM, respectively.
For `CCOC(=O)CC1CCc2cc(NC(=O)c3ccc(NC(=N)N)cc3)ccc2O1` (racemic) [Example 64, Ethyl rac-(6-(N-(4-((Aminoiminomethyl)amino)benzoyl)amino)-3,4-dihydro-2H-1-benzopyran-2-yl)acetate], the values for the IC50 in assay [1] and in assay [2] were 800 nM and 11 µM, respectively.
Take `O=C(O)CC1CCc2cc(OCCC3CCNCC3)ccc2O1` (racemic) [Example 61, rac-(3,4-Dihydro-6-(2-(piperidin-4-yl)ethoxy)-2H-1-benzopyran-2-yl)acetic Acid Trifluoroacetate]: the IC50 in assay [1] was > 1000 nM; in assay [2] it was 100 µM.
For `N=C(N)c1ccc(COc2ccc3c(c2)CCC(OCC(=O)O)C3)cc1` (stereo not shown) [Example 23], in that order: 190 nM and 25 µM.
In the same order, the values of `N=C(N)c1ccc(COc2ccc3c(c2)CCN(C(CC(=O)O)C(=O)NCCC(=O)O)C3=O)cc1` (racemic) [Example 9, (+−)-6-[[4-(Aminoiminomethyl)phenyl]methoxy]-beta-[[(2-carboxyethyl)amino]carbonyl-3,4-dihydro-1-oxo-2(1H)-isoquinoline Propanoic Acid Trifluoroacetate] are 85 nM and 0.85 µM.
In the case of `N=C(N)c1ccc(C(=O)Nc2ccc3c(c2)CCC(CC(=O)O)O3)c(Cl)c1` (racemic) [Example 76, rac-(6-(N-(4-(Aminoiminomethyl)-2-chlorobenzoyl)amino)-3,4-dihydro-2H-1-benzopyran-2-yl)acetic Acid], the values for the IC50 in assay [1] and in assay [2] were 14 nM and 0.56 µM, respectively.
For `N=C(N)Nc1ccc(C(=O)Nc2ccc3c(c2)CCC(CC(=O)O)O3)cc1` (racemic) [Example 65, rac-(6-(N-(4-((Aminoiminomethyl)amino)benzoyl)amino)-3,4-dihydro-2H-1-benzopyran-2-yl)acetic Acid], in that order: 180 nM and 4.8 µM.
With `CNC(=N)c1ccc(C(=O)Nc2ccc3c(c2)CCC(CC(=O)O)O3)cc1` (racemic) [Example 58, rac-(3,4-Dihydro-6-(N-(4-((methylamino)iminomethyl)benzoyl)amino)-2H-1-benzopyran-2-yl)acetic Acid], the IC50 was found to be 33.4 nM in assay [1] and 0.28 µM in assay [2].
In the same order, the values of `N=C(N)CCCCCOc1ccc2c(c1)CCC(CC(=O)O)O2` (racemic) [Example 55, rac-(6-(5-(Aminoiminomethyl)pentoxy)-3,4-dihydro-2H-1-benzopyran-2-yl)acetic Acid Trifluoroacetate] are 3460 nM and > 100 µM.
For `CCCCCCNC(=O)C(CC(=O)O)N1CCc2cc(OCc3ccc(C(=N)N)cc3)ccc2C1=O` (racemic) [Example 5, (+−)-6-[[4-(Aminoiminomethyl)phenyl]methoxy]-3,4-dihydro-1-oxo-beta[hexylamino Carbonyl]-2(1H)-isoquinolone Propanoic Acid Trifluoroacetate], in that order: 33 nM and 7 µM.
Take `N=C(N)c1ccc(COc2ccc3c(c2)CCN(CC(=O)O)C3=O)cc1` [Example 1, 6-[[4-(Aminoiminomethyl)phenyl]methoxy]-3,4-dihydro-1-oxo-2(1H)-isoquinoline Acetic Acid Trifluoroacetate]: the IC50 in assay [1] is 600 nM; in assay [2] it was 20 µM.
`N=C(N)c1ccc(C(=O)Nc2ccc3c(c2)CCC(CC(=O)O)C3=O)c(F)c1` (stereo not shown) [Example 32]: the IC50 in assay [1] is 4 nM; in assay [2], 0.1 µM.
In the same order, the values of `N=C(N)c1ccc(C(=O)Nc2ccc3c(c2)CCC(CC(=O)O)C3=O)c(Cl)c1` (racemic) [Example 63, rac-(6-(N-(4-Aminoiminomethyl-2-chlorobenzoyl)amino)-1-oxo-1,2,3,4-tetrahydronaphthalen-2-yl)acetic Acid] are 9.4 nM and 0.092 µM.
For `O=C(O)CN1CCc2cc(OCCCC3CCNCC3)ccc2C1` [Example 34], in that order: 220 nM and 2.3 µM.
As for `N=C(N)c1ccc(C(=O)Nc2ccc3c(c2)CCC(/C=C/C(=O)O)C3)cc1` (stereo not shown) [Example 37], the IC50 in assay [1] worked out at 100 nM; in assay [2], 4.4 µM.
For `N=C(N)c1ccc(C(=O)Nc2ccc3c(c2)CCC(OCC(=O)O)C3)cc1` (stereo not shown) [Example 29], in that order: 15 nM and 0.28 µM.
In the same order, the values of `N=C(N)c1ccc(CNC(=O)c2ccc3c(c2)CCN(CC(=O)O)C3=O)cc1` [Example 19, 6-[[(4-Aminoiminomethyl)phenyl]methylaminocarbonyl]-3,4-dihydro-1-oxo-2(1H)isoquinoline Acetic Acid Trifluoroacetate] are 13000 nM and > 100 µM.
